Reference: patent publication US10392404B2, “Compounds and compositions as kinase inhibitors” (NOVARTIS AG, priority 2014, dated 2019)

Assays:
C-RAF = molecular target: T1, C-RAF (Homo sapiens, UniProt P04049, Y340E/Y341E); assay: In vitro Raf activity determination (Alpha Screen, biotinylated kinase-dead MEK1 substrate), C-Raf; assay type: biochemical; conditions: c-Raf approximately 4 nM; ATP 1 μM; pre-incubation 60 minutes; reaction 1 hour at room temperature
T1 construct: His tag (implied by nickel chromatography) (cleaved yes); StrepII tag (cleaved yes); made in house; host or cells: Sf9 insect cells (baculovirus), CRAF and h14-3-3 zeta co-expressed; MEK1 substrate from E. coli
Excerpt: CRAF cDNA was subcloned as full length protein, with Y340E and Y341E activating mutations, into a baculovirus expression vector for Sf9 insect cell expression. h14-3-3 zeta cDNA was subcloned into a baculovirus expression vector for SF9 insect cell expression. Sf9 cells co-expressing both proteins were lysed and subjected to immobilized nickel chromatography and eluted with Imidazole. A second column (StrepII binding column) was used and eluted with desthiobiotin. Protein Tags were removed using Prescission enzyme and the protein was further purified using a flowthrough step to remove tags.
C-Raf TR refers to a truncated C-Raf protein, a Δ1-324 deletion mutant. C-Raf FL refers to the full-length C-Raf protein.
(§1) Full length MEK1 with an inactivating K97R ATP binding site mutation is utilized as a RAF substrate. The MEK1 cDNA was subcloned with an N-terminal (his)6 tag into a vector for E. Coli expression. The MEK1 substrate was purified from E. Coli lysate by nickel affinity chromatography followed by anion exchange. The final MEK1 preparation was biotinylated (Pierce EZ-Link Sulfo-NHS-LC-Biotin) and concentrated.
(§2) Assay Materials: Assay buffer is 50 mM Tris, pH 7.5, 15 mM MgCl2, 0.01% Bovine Serum Albumin (BSA) and 1 mM dithiothreitol (DTT); Stop buffer is 60 mM ethylenediaminetetraacetic acid (EDTA) and 0.01% Tween® 20; b-Raf (V600E), active; biotinylated Mek, kinase dead; Alpha Screen detection kit (available from PerkinElmer™, #6760617R); Anti phospho-MEK1/2 (available from Cell Signaling Technology, Inc. #9121); 384 well low volume assay plates (White Greiner® plates).
(§3) Assay conditions: b-Raf (V600E) approximately 4 pM; c-Raf approximately 4 nM; biotinylated Mek, kinase dead approximately 10 nM; ATP 10 μM for BRAF (V600E) and 1 μM for CRAF; Pre-incubation time with compounds 60 minutes at room temperature; Reaction time 1 or 3 hours at room temperature.
(§4) Assay protocol: Raf and biotinylated Mek (kinase dead) were combined at 2× final concentrations in assay buffer (50 mM Tris, pH 7.5, 15 mM MgCl2, 0.01% BSA and 1 mM DTT) and dispensed […] per well in assay plates (Greiner white 384 well assay plates #781207) containing […] of 40× of a Raf kinase inhibitor test compound diluted in 100% DMSO. The plate was incubated for 60 minutes at room temperature. The Raf kinase activity reaction was started by the addition of […] per well of 2×ATP diluted in assay buffer. After 3 hours (b-Raf(V600E)) or 1 hour (c-Raf). The reactions were stopped and the phosphorylated product was measured using a rabbit anti-p-MEK (Cell Signaling, #9121) antibody and the Alpha Screen IgG (ProteinA) detection Kit (PerkinElmer #6760617R), by the addition of […] to the well of a mixture of the antibody (1:2000 dilution) and detection beads (1:2000 dilution of both beads) in Stop/bead buffer (25 mM EDTA, 50 mM Tris, pH 7.5, 0.01% Tween20). The additions were carried out under dark conditions to protect the detection beads from light. A lid was placed on top of the plate and incubated for 1 hour at room temperature, after which the luminescence was read on a PerkinElmer Envision instrument. The concentration of each compound for 50% inhibition (IC50) was calculated by non-linear regression using XL Fit data analysis software.

b-Raf (V600E) = molecular target: T2, b-Raf (V600E) (Homo sapiens, UniProt P15056, V600E); assay: In vitro Raf activity determination (Alpha Screen, biotinylated kinase-dead MEK1 substrate), B-Raf; assay type: biochemical; conditions: b-Raf (V600E) approximately 4 pM; ATP 10 μM; pre-incubation 60 minutes; reaction 3 hours at room temperature
T2 construct: made in house
Experimental: as §1, §2, §3, §4

T1 sequence (P04049 whole entry Y340E/Y341E): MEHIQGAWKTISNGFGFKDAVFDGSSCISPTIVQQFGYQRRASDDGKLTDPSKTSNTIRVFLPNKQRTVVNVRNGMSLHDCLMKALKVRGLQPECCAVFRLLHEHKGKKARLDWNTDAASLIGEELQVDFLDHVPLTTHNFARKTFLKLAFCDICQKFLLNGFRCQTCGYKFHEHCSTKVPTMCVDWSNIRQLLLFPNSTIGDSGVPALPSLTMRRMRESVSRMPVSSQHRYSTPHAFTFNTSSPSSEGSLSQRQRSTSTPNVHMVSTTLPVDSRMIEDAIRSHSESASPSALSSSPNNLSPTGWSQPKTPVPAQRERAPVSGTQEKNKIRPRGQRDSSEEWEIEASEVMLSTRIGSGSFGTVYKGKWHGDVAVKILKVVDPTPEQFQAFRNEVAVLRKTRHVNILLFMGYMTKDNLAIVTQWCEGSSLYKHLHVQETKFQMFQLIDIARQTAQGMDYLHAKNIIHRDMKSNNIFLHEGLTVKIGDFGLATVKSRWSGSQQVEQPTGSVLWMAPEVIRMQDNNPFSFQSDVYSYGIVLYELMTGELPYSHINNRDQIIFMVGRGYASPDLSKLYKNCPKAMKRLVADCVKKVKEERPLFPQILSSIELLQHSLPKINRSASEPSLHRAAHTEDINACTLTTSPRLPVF
T1 sequence (P63104 whole entry partner): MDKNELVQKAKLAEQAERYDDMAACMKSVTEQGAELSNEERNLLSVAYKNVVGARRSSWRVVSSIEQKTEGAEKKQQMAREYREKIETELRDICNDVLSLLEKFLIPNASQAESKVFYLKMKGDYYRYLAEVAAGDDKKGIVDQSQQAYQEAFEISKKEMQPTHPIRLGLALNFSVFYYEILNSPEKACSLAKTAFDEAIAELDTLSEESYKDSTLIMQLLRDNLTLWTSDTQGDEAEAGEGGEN
T2 sequence (P15056 whole entry V600E): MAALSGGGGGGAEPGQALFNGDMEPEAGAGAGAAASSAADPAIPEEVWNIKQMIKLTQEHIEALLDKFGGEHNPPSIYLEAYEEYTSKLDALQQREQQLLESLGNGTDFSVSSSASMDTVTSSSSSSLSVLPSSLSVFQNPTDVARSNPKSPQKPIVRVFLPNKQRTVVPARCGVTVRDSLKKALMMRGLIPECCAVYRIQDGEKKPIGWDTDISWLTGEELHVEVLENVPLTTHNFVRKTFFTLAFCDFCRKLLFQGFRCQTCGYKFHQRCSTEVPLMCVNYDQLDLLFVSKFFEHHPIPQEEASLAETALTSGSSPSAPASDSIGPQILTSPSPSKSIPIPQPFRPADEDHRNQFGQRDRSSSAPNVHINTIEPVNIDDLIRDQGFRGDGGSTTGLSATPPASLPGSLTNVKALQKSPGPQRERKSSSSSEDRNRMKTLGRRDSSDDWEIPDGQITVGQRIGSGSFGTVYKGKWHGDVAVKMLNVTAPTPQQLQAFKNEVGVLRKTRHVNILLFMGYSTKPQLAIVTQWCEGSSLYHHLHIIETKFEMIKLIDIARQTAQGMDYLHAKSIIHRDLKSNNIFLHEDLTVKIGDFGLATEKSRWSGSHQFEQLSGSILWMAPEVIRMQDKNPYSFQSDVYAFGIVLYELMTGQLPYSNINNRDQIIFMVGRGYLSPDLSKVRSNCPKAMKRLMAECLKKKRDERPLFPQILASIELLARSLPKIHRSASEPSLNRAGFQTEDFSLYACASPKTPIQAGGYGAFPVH

SMILES	IC50 (C-RAF) [nM]	IC50 (b-Raf (V600E)) [nM]
Cc1ccc(NC(=O)c2ccnc(C(C)(C)C#N)c2)cc1-c1cnc(N)c(C#N)c1 [Example 2, N-(3-(6-amino-5-cyanopyridin-3-yl)-4-methylphenyl)-2-(2-cyanopropan-2-yl) isonicotinamide]	0.661	3.07
Cc1ccc(C(=O)Nc2cccc(C(F)(F)F)c2)cc1-c1cnc(N)c(C#N)c1 [Example 3, 3-(6-amino-5-cyanopyridin-3-yl)-4-methyl-N-(3-(trifluoromethyl)phenyl)benzamide]	0.125	0.991
Cc1ncc(NC(=O)c2cccc(C(F)(F)F)c2)cc1-c1cnc(N)c(C#N)c1 [Example 4, N-(6′-amino-5′-cyano-2-methyl-[3,3′-bipyridin]-5-yl)-3-(trifluoromethyl) benzamide]	0.211	1.63
CNc1ncc(-c2cc(NC(=O)c3cccc(C(F)(F)F)c3)ccc2C)cc1C#N [Example 5, N-(3-(5-cyano-6-(methylamino)pyridin-3-yl)-4-methylphenyl)-3-(trifluoromethyl) benzamide]	0.18	1.33
CNc1ncc(-c2cc(NC(=O)c3ccnc(C(C)(C)C#N)c3)ccc2C)cc1C#N [Example 6, N-(3-(5-cyano-6-(methylamino)pyridin-3-yl)-4-methylphenyl)-2-(2-cyanopropan-2-yl)isonicotinamide]	0.379	2.18
CNc1ncc(-c2cc(C(=O)Nc3cccc(C(F)(F)F)c3)ccc2C)cc1C#N [Example 7, 3-(5-cyano-6-(methylamino)pyridin-3-yl)-4-methyl-N-(3-(trifluoromethyl)phenyl) benzamide]	0.566	4.44
CNc1ncc(-c2cc(NC(=O)c3cccc(C(F)(F)F)c3)cnc2C)cc1C#N [Example 8, N-(5′-cyano-2-methyl-6′-(methylamino)-[3,3′-bipyridin]-5-yl)-3-(trifluoromethyl) benzamide]	0.25	1.98
Cc1ccc(NC(=O)c2ccnc(C(C)(C)C#N)c2)cc1-c1cnc(N)c(C#N)c1C [Example 9, N-(3-(6-amino-5-cyano-4-methylpyridin-3-yl)-4-methylphenyl)-2-(2-cyanopropan-2-yl)isonicotinamide]	6.55	60.8
Cc1ccc(C(=O)Nc2cccc(C(F)(F)F)c2)cc1-c1cnc(N)c(C#N)c1C [Example 11, 3-(6-amino-5-cyano-4-methylpyridin-3-yl)-4-methyl-N-(3-(trifluoromethyl)phenyl)benzamide]	0.606	9.79
Cc1ccc(NC(=O)c2ccnc(C(C)(C)C#N)c2)cc1-c1cc(C#N)cnc1N [Example 12, N-(3-(2-amino-5-cyanopyridin-3-yl)-4-methylphenyl)-2-(2-cyanopropan-2-yl)isonicotinamide]	1.81	27.8
Cc1ccc(NC(=O)c2cccc(C(F)(F)F)c2)cc1-c1cc(C#N)cnc1N [Example 13, N-(3-(2-amino-5-cyanopyridin-3-yl)-4-methylphenyl)-3-(trifluoromethyl) benzamide]	0.284	5.61
Cc1ccc(NC(=O)c2cccc(C(F)(F)F)c2)cc1-c1cc(C#N)c[nH]c1=O [Example 14, N-(3-(5-cyano-2-oxo-1,2-dihydropyridin-3-yl)-4-methylphenyl)-3-(trifluoromethyl) benzamide]	0.614	11.2

The next lines start with the values.

IC50 (C-RAF) [nM]	IC50 (b-Raf (V600E)) [nM]	SMILES
3.16	12.3	Cc1ncc(NC(=O)c2ccnc(C(C)(C)C#N)c2)cc1-c1cnc(NC2CCOC2)c(C#N)c1 (stereo in doubt) [Example 78a, (S)-N-(5′-cyano-2-methyl-6′-((tetrahydrofuran-3-yl)amino)-[3,3′-bipyridin]-5-yl)-2-(2-cyanopropan-2-yl)isonicotinamide]
2.41	10.3	Cc1ncc(NC(=O)c2ccnc(C(C)(C)C#N)c2)cc1-c1cnc(NC2CCOC2)c(C#N)c1 (stereo in doubt) [Example 78b, (R)-N-(5′-cyano-2-methyl-6′-((tetrahydrofuran-3-yl)amino)-[3,3′-bipyridin]-5-yl)-2-(2-cyanopropan-2-yl)isonicotinamide]
0.0734	0.566	Cc1ccc(NC(=O)c2cccc(C(F)(F)F)c2)cc1-c1cnc(N(C)C)c(C#N)c1 [Example 15, N-(3-(5-cyano-6-(dimethylamino)pyridin-3-yl)-4-methylphenyl)-3-(trifluoromethyl) benzamide]
0.216	1.53	Cc1ccc(NC(=O)c2ccnc(C(C)(C)C#N)c2)cc1-c1cnc(N(C)C)c(C#N)c1 [Example 16, N-(3-(5-cyano-6-(dimethylamino)pyridin-3-yl)-4-methylphenyl)-2-(2-cyanopropan-2-yl)isonicotinamide]
0.323	2.28	Cc1ccc(NC(=O)c2cccc(C(F)(F)F)c2)cc1-c1cnc(NC2CC2)c(C#N)c1 [Example 17, N-(3-(5-cyano-6-(cyclopropylamino)pyridin-3-yl)-4-methylphenyl)-3-(trifluoromethyl) benzamide]
0.386	3.44	Cc1ccc(NC(=O)c2cccc(C(F)(F)F)c2)cc1-c1cnc(NC(C)C)c(C#N)c1 [Example 18, N-(3-(5-cyano-6-(isopropylamino)pyridin-3-yl)-4-methylphenyl)-3-(trifluoromethyl) benzamide]
0.397	2.15	Cc1ccc(NC(=O)c2ccnc(C(C)(C)C#N)c2)cc1-c1cnc(NC2CC2)c(C#N)c1 [Example 19, N-(3-(5-cyano-6-(cyclopropylamino)pyridin-3-yl)-4-methylphenyl)-2-(2-cyanopropan-2-yl)isonicotinamide]
0.467	1.67	Cc1ccc(NC(=O)c2ccnc(C(C)(C)C#N)c2)cc1-c1cnc(NC(C)C)c(C#N)c1 [Example 20, N-(3-(5-cyano-6-(isopropylamino)pyridin-3-yl)-4-methylphenyl)-2-(2-cyanopropan-2-yl)isonicotinamide]
0.103	0.575	Cc1ccc(NC(=O)c2ccnc(C(F)(F)F)c2)cc1-c1cnc(NC2CC2)c(C#N)c1 [Example 21, N-(3-(5-cyano-6-(cyclopropylamino)pyridin-3-yl)-4-methylphenyl)-2-(trifluoromethyl) isonicotinamide]
0.314	1.25	Cc1ccc(NC(=O)c2ccnc(C(F)(F)F)c2)cc1-c1cnc(NC(C)C)c(C#N)c1 [Example 22, N-(3-(5-cyano-6-(isopropylamino)pyridin-3-yl)-4-methylphenyl)-2-(trifluoromethyl) isonicotinamide]
0.247	1.46	CCNc1ncc(-c2cc(NC(=O)c3cccc(C(F)(F)F)c3)ccc2C)cc1C#N [Example 23, N-(3-(5-cyano-6-(ethylamino)pyridin-3-yl)-4-methylphenyl)-3-(trifluoromethyl) benzamide]
0.123	0.805	CCNc1ncc(-c2cc(NC(=O)c3ccnc(C(F)(F)F)c3)ccc2C)cc1C#N [Example 24, N-(3-(5-cyano-6-(ethylamino)pyridin-3-yl)-4-methylphenyl)-2-(trifluoromethyl) isonicotinamide]
312	–	Cc1cc(C(=O)Nc2cnc(C)c(-c3cnc(N(C)C)c(C#N)c3)c2)n(C)n1 [Example 265, N-(5′-cyano-6′-(dimethylamino)-2-methyl-[3,3′-bipyridin]-5-yl)-1,3-dimethyl-1H-pyrazole-5-carboxamide]
